# US7199153B2, “Pharmaceutical composition comprising paracetamol and niflumic acid” (SmithKline Beechman, p.l.c., priority 2000, dated 2007)
# Test system: P-phenyl-quinone induced abdominal constriction in DBA/2 mice
# Test: P-phenyl-quinone induced mouse abdominal constriction (MAC) assay
# Assay type: in vivo
# Conditions: paracetamol alone at 50 mg/kg and 150 mg/kg, po
# Method: The method is based on that described by Siegmund, Cadmus and Lu in “A Method for Evaluating both Non-Narcotic and Narcotic Analgesics” Proc. Soc. Exp. Biol. Med., 95: 729–731 (1957)).
# DBA/2 mice were housed 20 per cage in a temperature and humidity controlled environment on a 12:12 hour light-dark cycle for five days with food and water ad libitum before testing. […] Ten animals were randomly allocated to each drug group and experimental designs were used that allowed complete randomisation of the testing of drug groups. Drugs were suspended in 1% methylcellulose and administered 10 ml/kg po, 60 mins pre-test. Abdominal constriction was induced by i.p. injection of 10 ml/kg P-phenyl-quinone (0.025% in 5% ethanol/water) and the total number of constrictions in a twenty minute period were measured. A constriction is defined as a flattening of the abdomen with extension of the hind limbs. Testing was blind with one experimenter observing five animals. All experiments were performed in accordance with the Animals (Scientific Procedures) Act 1986 and subject to local ethical committee approval.
# For each drug group, the mean % inhibition of constrictions was calculated ((1-(test/control))*100) and appropriate statistics were performed on log-transformed data to test significant differences from vehicle and, in the case of groups receiving drug combinations, each drug alone.
structure (smiles),measurement,value
"CC(=O)Nc1ccc(O)cc1 [Paracetamol, N-acetyl-p-aminophenol]","% inhibition of constrictions, drug alone",small but significant effect
